In BigSolDB 2.1:

CCCCc1oc2ccc(NS(C)(=O)=O)cc2c1C(=O)c1ccc(OCCCN(CCCC)CCCC)cc1.Cl
solubility (mole fraction)
Conditions	in ethanol	in isopropanol	in methanol	in n-butanol	in n-propanol	in water
298.15 K	0.00418	0.000681	0.0556	0.00177	0.00275	2.71e-05
303.15 K	0.00461	0.000838	0.0592	0.00209	0.00353	2.73e-05
308.15 K	0.00535	0.00106	0.061	0.00261	0.00433	3.09e-05
313.15 K	0.00818	0.00119	0.077	0.00352	0.00563	3.57e-05
318.15 K	0.0159	0.00185	0.0919	0.00509	0.00892	4.49e-05
323.15 K	0.0362	0.00293	0.119	0.00805	0.0159	6.11e-05
